In assay [1] the target is T1, EhGα1 (Entamoeba histolytica, UniProt C4M483).
T1 construct: gene EHI_140350; E. coli; N-terminal TEV-cleavable His6 tag; HM-1:IMSS used for trophozoite work
Put plainly: […]GTPγS radionucleotide binding. The settings on record: 30 °C; association limited by spontaneous GDP release; labelled compound; a rate, not an affinity.

The target of assay [2] is T2, human Gαi1 (Homo sapiens, UniProt P63096).
T2 construct: gene GNAI1; purified protein; details not in main text
As to the kind of experiment: […]GTPγS radionucleotide binding. The settings on record: 30 °C; association limited by spontaneous GDP release; labelled compound; a rate, not an affinity; figure legend gives 0.06 ±0.01.

The target of assay [3] is T3, EhRGS-RhoGEF (E. histolytica, UniProt C4LYV4 1-519).
T3 chain: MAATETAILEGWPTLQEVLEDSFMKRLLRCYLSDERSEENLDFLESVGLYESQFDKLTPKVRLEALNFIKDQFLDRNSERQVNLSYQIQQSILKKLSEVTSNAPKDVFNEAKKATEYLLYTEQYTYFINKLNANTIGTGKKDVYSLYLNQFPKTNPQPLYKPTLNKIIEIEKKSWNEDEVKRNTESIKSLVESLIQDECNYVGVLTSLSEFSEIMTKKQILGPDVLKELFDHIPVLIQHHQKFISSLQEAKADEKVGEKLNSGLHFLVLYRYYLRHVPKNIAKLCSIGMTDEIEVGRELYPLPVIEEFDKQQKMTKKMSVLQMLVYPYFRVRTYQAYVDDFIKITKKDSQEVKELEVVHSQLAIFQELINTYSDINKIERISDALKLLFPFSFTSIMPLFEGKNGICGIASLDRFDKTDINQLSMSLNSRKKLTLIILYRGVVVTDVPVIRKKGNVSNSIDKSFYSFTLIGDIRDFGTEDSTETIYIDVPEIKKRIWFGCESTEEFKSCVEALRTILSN
Put plainly: SPR.

T2 sequence (P63096 2-354): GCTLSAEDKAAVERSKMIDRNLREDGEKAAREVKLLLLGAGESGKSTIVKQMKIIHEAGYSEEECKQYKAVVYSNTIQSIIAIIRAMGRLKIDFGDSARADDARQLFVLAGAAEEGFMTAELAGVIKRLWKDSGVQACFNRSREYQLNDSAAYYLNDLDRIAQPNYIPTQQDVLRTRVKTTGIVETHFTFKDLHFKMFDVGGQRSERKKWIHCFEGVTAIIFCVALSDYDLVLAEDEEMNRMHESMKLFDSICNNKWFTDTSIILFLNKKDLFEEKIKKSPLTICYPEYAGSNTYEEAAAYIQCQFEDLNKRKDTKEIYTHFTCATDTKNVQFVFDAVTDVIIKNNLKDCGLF

As to `Nc1nc2c(ncn2[C@@H]2O[C@H](COP(=O)(O)OP(=O)(O)OP(O)(O)=S)[C@@H](O)[C@H]2O)c(=O)[nH]1` [GTPγS], the kobs in assay [1] came to 0.27 ± 0.06 min⁻¹; in assay [2], 0.064 min⁻¹.

B1: EhGα1 (recombinant, purified from E. coli) (natural protein)
chain: MGCGQSKDNSIDKQIVEMAKSKPITVMLLGSGESGKSTIAKQLKILFGGGFPEQERATHKSSICSNVVTCMRTLIEQSAILNHPMKYQPKSKEFTTEDPVTLPFSPELVGDVEALWADEGIQATYEESAKFQLPDCAKYLFENVKRIAMEDYVPTEEDLIHNRTKTTGIHEYDFVVKDIPFHLIDVGGQRSERKKWVSFFSDVDCAIFVTSLAEYDMKLYEDGNTSRLTESIAVFKDIMTNEFLKGAVKLIFLNKMDLFEEKLTKVPLNTIFPEYTGGDNAVMGAQYIQQLFTGKLQTEEMNISGADGTANIEGAVNEKVYTNPTNATDGSNIKRVFMLAVDVIMKNMAANGKMRPTK
Molecule B1 gave a Kd in assay [3] of 2100 nM.

These data come from paper PMC3499586, “Heterotrimeric G-protein Signaling Is Critical to Pathogenic Processes in Entamoeba histolytica” (PLoS Pathogens, 2012).
